We go through nine compounds from patent US8680012B2, “4-phenyl-pyrane-3,5-diones,4-phenyl-thiopyrane-3,6-diones and cyclohexanetriones as novel herbicides” (Syngenta Crop Protection LLC, priority 2006, dated 2014).

Assay type in all cases: in vivo
The test system of assay [1] is Amaranthus retroflexus (AMARE). Put plainly: Example B post-emergence herbicidal activity, glasshouse pot test. The note with it: 312 h, evaluated after 13 days, read-out: Post-emergence activity AMARE (100=total damage to plant; 0=no damage to plant); for pest or weed control at 250 g/ha: rate 250 g/ha; for pest or weed control at 1000 g/ha: rate 1000 g/ha. Put shortly: (§1)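 Visual injury score (0 none to 100 total plant damage) recorded 13 days after spraying. Plants received an aqueous spray of compound in 50:50 acetone/water with 0.5% Tween 20, either one day after sowing or after eight days of cultivation, in pots kept under controlled glasshouse conditions.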

Assay [2] concerns Echinochloa crus-galli (ECHCG). The assay is described as above. The settings on record: 312 h, evaluated after 13 days, read-out: Post-emergence activity ECHCG (100=total damage to plant; 0=no damage to plant); for pest or weed control at 250 g/ha: rate 250 g/ha; for pest or weed control at 1000 g/ha: rate 1000 g/ha. Put shortly: as §1
Assay [3] has as its system Setaria faberi (SETFA). The description is as above. The note with it: 312 h, evaluated after 13 days, read-out: Post-emergence activity SETFA (100=total damage to plant; 0=no damage to plant); for pest or weed control at 250 g/ha: rate 250 g/ha; for pest or weed control at 1000 g/ha: rate 1000 g/ha. Put shortly:
as §1

In assay [4] the test system is Avena fatua (AVEFA). Described as above. The note with it: 312 h, evaluated after 13 days, read-out: Post-emergence activity AVEFA (100=total damage to plant; 0=no damage to plant); for pest or weed control at 250 g/ha: rate 250 g/ha; for pest or weed control at 1000 g/ha: rate 1000 g/ha. Put shortly: as §1
The test system of assay [5] is Solanum nigrum (SOLNI). Described as above. The settings on record: 312 h, evaluated after 13 days, read-out: Post-emergence activity SOLNI (100=total damage to plant; 0=no damage to plant); for pest or weed control at 250 g/ha: rate 250 g/ha; for pest or weed control at 1000 g/ha: rate 1000 g/ha. Put shortly: as §1
Assay [6] concerns Alopecurus myosuroides (ALOMY). The description is as above. The note with it: 312 h, evaluated after 13 days, read-out: Post-emergence activity ALOMY (100=total damage to plant; 0=no damage to plant); for pest or weed control at 250 g/ha: rate 250 g/ha; for pest or weed control at 1000 g/ha: rate 1000 g/ha. Put shortly:
as §1

The test system of assay [7] is Amaranthus retroflexus (AMARE). Put plainly: Example B pre-emergence herbicidal activity, glasshouse pot test. The note with it: 312 h, evaluated after 13 days, read-out: Pre-emergence activity AMARE (100=total damage to plant; 0=no damage to plant); for pest or weed control at 250 g/ha: rate 250 g/ha; for pest or weed control at 1000 g/ha: rate 1000 g/ha. Put shortly:
as §1

Assay [8] relates to Echinochloa crus-galli (ECHCG). The assay is described as above. The settings on record: 312 h, evaluated after 13 days, read-out: Pre-emergence activity ECHCG (100=total damage to plant; 0=no damage to plant); for pest or weed control at 250 g/ha: rate 250 g/ha; for pest or weed control at 1000 g/ha: rate 1000 g/ha. Put shortly: as §1
Assay [9] has as its system Setaria faberi (SETFA). Described as above. The note with it: 312 h, evaluated after 13 days, read-out: Pre-emergence activity SETFA (100=total damage to plant; 0=no damage to plant); for pest or weed control at 250 g/ha: rate 250 g/ha; for pest or weed control at 1000 g/ha: rate 1000 g/ha. Put shortly: as §1
In assay [10] the test system is Avena fatua (AVEFA). The assay is described as above. The note with it: 312 h, evaluated after 13 days, read-out: Pre-emergence activity AVEFA (100=total damage to plant; 0=no damage to plant); for pest or weed control at 250 g/ha: rate 250 g/ha; for pest or weed control at 1000 g/ha: rate 1000 g/ha. Put shortly:
as §1

Assay [11] deals with Solanum nigrum (SOLNI). The assay is described as above. The settings on record: 312 h, evaluated after 13 days, read-out: Pre-emergence activity SOLNI (100=total damage to plant; 0=no damage to plant); for pest or weed control at 250 g/ha: rate 250 g/ha; for pest or weed control at 1000 g/ha: rate 1000 g/ha. Put shortly:
as §1

The test system of assay [12] is Alopecurus myosuroides (ALOMY). The description is as above. The note with it: 312 h, evaluated after 13 days, read-out: Pre-emergence activity ALOMY (100=total damage to plant; 0=no damage to plant); for pest or weed control at 250 g/ha: rate 250 g/ha; for pest or weed control at 1000 g/ha: rate 1000 g/ha. Put shortly:
as §1

In the case of `CCc1ccc(-c2ccc(Cl)cc2F)cc1C1=C(O)C(C)(C)C(=O)C(C)(C)C1=O` [Compound B-31], the pest or weed control at 250 g/ha was 0% in assay [1]; 90% in assay [2]; 90% with Setaria faberi (SETFA) [3]; 0% with Avena fatua (AVEFA) [4]; 0% in the assay with Solanum nigrum (SOLNI) [5]; 10% in assay [6]. Moreover, the pest or weed control at 250 g/ha amounted to 0% in [7]; 50% in [8]; 50% with Setaria faberi (SETFA) [9]; 20% in the assay on Avena fatua (AVEFA) [10]; 0% in the assay with Solanum nigrum (SOLNI) [11]; 0% in [12].

Turning to `Cc1ccc(-c2cc(F)cc(F)c2)cc1C1=C(O)C(C)(C)OC(C)(C)C1=O` [Compound A-25], the pest or weed control at 1000 g/ha in assay [1] worked out at 100%; in [2] it was 90%; in the assay with Setaria faberi (SETFA) [3], 70%; with Avena fatua (AVEFA) [4] it was 0%; in the assay with Solanum nigrum (SOLNI) [5] it was 70%; in assay [6], 70%. The pest or weed control at 1000 g/ha was found to be 0% in assay [7]; 80% in assay [8]; 20% in the assay with Setaria faberi (SETFA) [9]; 30% in the assay with Avena fatua (AVEFA) [10]; 0% in the assay on Solanum nigrum (SOLNI) [11]; 70% in assay [12].

Turning to `CCc1ccc(-c2ccc(Cl)cc2OC)cc1C1=C(O)C(C)(C)C(=O)C(C)(C)C1=O` [Compound B-25], the pest or weed control at 250 g/ha in [1] amounted to 0%; in assay [2], 70%; in the assay with Setaria faberi (SETFA) [3] it was 20%; with Avena fatua (AVEFA) [4], 0%; with Solanum nigrum (SOLNI) [5] it was 0%; in assay [6], 20%. Moreover, the pest or weed control at 250 g/ha (in assay [7]; in assay [8]; with Setaria faberi (SETFA) [9]; with Avena fatua (AVEFA) [10]; with Solanum nigrum (SOLNI) [11]; in assay [12]) was 0% each time.

With `CCc1ccc(-c2ccc(Cl)nc2C)cc1C1=C(O)C(C)(C)C(=O)C(C)(C)C1=O` [Compound B-30], the pest or weed control at 250 g/ha in [1] came out at 0%; in [2], 70%; in the assay with Setaria faberi (SETFA) [3] it was 70%; with Avena fatua (AVEFA) [4], 0%; in the assay with Solanum nigrum (SOLNI) [5] it was 10%; in assay [6], 20%. In addition, the pest or weed control at 250 g/ha (in [7]; in assay [8]; with Setaria faberi (SETFA) [9]; in the assay with Avena fatua (AVEFA) [10]; in the assay with Solanum nigrum (SOLNI) [11]; in assay [12]) was 0% throughout.

As for `Cc1ccc(-c2ccc(Cl)nc2)cc1C1=C(O)C(C)(C)OC(C)(C)C1=O` [Compound A-54], the pest or weed control at 1000 g/ha in assay [1] turned out to be 0%; in assay [2], 90%; in the assay with Setaria faberi (SETFA) [3] it was 80%; in the assay with Avena fatua (AVEFA) [4], 50%; in the assay with Solanum nigrum (SOLNI) [5], 0%; in assay [6] it was 80%. Further, the pest or weed control at 1000 g/ha stood at 20% in [7]; 100% in assay [8]; 90% in the assay with Setaria faberi (SETFA) [9]; 80% with Avena fatua (AVEFA) [10]; 0% with Solanum nigrum (SOLNI) [11]; 70% in [12].

As to `Cc1ccc(-c2ccc(Cl)cc2F)cc1C1=C(O)C(C)(C)C(=O)C(C)(C)C1=O` [Compound B-18], the pest or weed control at 250 g/ha worked out at 0% in assay [1]; 60% in [2]; 70% in the assay on Setaria faberi (SETFA) [3]; 0% in the assay on Avena fatua (AVEFA) [4]; 0% in the assay on Solanum nigrum (SOLNI) [5]; 10% in [6]. Also, the pest or weed control at 250 g/ha in assay [7] is 0%; in assay [8] it was 0%; in the assay on Setaria faberi (SETFA) [9], 20%; with Avena fatua (AVEFA) [10], 0%; with Solanum nigrum (SOLNI) [11], 0%; in assay [12], 40%.

Regarding `CCc1ccc(-c2ccc(Cl)c(C)c2)cc1C1=C(O)C(C)(C)C(=O)C(C)(C)C1=O` [Compound B-2], the pest or weed control at 1000 g/ha in assay [1] was determined as 70%; in assay [2], 80%; with Setaria faberi (SETFA) [3], 20%; in the assay with Avena fatua (AVEFA) [4], 0%; in the assay with Solanum nigrum (SOLNI) [5] it was 40%; in [6], 0%. For the same compound, the pest or weed control at 1000 g/ha in assay [7] worked out at 90%; in assay [8] it was 70%; with Setaria faberi (SETFA) [9] it was 0%; in the assay on Avena fatua (AVEFA) [10], 20%; in the assay with Solanum nigrum (SOLNI) [11], 30%; in assay [12] it was 0%.

As to `Cc1ccc(-c2ccc(Cl)nc2Cl)cc1C1=C(O)C(C)(C)OC(C)(C)C1=O` [Compound A-58], the pest or weed control at 1000 g/ha was 70% in [1]; 100% in [2]; 90% in the assay with Setaria faberi (SETFA) [3]; 90% in the assay with Avena fatua (AVEFA) [4]; 30% in the assay with Solanum nigrum (SOLNI) [5]; 90% in assay [6]. The pest or weed control at 1000 g/ha in assay [7] was 20%; in assay [8] it was 100%; with Setaria faberi (SETFA) [9] it was 100%; in the assay with Avena fatua (AVEFA) [10], 60%; in the assay with Solanum nigrum (SOLNI) [11] it was 20%; in assay [12], 80%.

Regarding `CCc1ccc(-c2ccc(Cl)cc2)cc1C1=C(OC(=O)C(C)(C)OC)C(C)(C)OC(C)(C)C1=O` [Compound D-20], the pest or weed control at 1000 g/ha in assay [1] came out at 20%; in assay [2], 100%; in the assay on Setaria faberi (SETFA) [3], 100%; with Avena fatua (AVEFA) [4] it was 90%; in the assay with Solanum nigrum (SOLNI) [5] it was 0%; in [6] it was 100%. For the same compound, the pest or weed control at 1000 g/ha was 0% in assay [7]; 60% in [8]; 90% with Setaria faberi (SETFA) [9]; 0% in the assay with Avena fatua (AVEFA) [10]; 0% in the assay with Solanum nigrum (SOLNI) [11]; 30% in assay [12].
